The text below walks through data of patent US10828301B2, “2,4-pyrimidinediamine compounds and their uses” (Rigel Pharmaceuticals, Inc, priority 2002, dated 2020).

Common to all, as to type: cell-based
Assay [1] relates to cultured human mast cells (CHMC). Briefly: CHMC high cell density IgE activation: degranulation (hexos, tryptase, histamine), leukotriene (LTC4) and cytokine (TNFalpha, IL-13) assays. Conditions: anti-IgE activation. As to the method: After sensitizing, cells are counted, pelleted (1000 rpm, 5-10 minutes), and resuspended at 1-2×10^6 cells/ml in MT buffer. Add 100 ul of cell suspension to each well and 100 ul of compound dilutions. The final vehicle concentration is 0.5% DMSO. Incubate at 37° C. (5% CO2) for 1 hour. After 1 hour of compound treatment, stimulate cells with 6× anti-IgE. Mix wells with the cells and allow plates to incubate at 37° C. (5% CO2) for one hour. After 1 hour incubation, pellet cells (10 minutes, 1000 RPM) and collect 200 ul per well of the supernatant, being careful not to disturb pellet. Place the supernatant plate on ice. During the 7-hour step (see next) perform tryptase assay on supernatant that had been diluted 1:500. Resuspend cell pellet in 240 ul of CM media containing 0.5% DMSO and corresponding concentration of compound. Incubate CHMC cells for 7 hours at 37° C. (5% CO2). After incubation, pellet cells (1000 RPM, 10 minutes) and collect 225 ul per well and place in −80° C. until ready to perform ELISAS. ELISAS are performed on appropriately diluted samples (determined empirically for each donor cell population so that the sample measurement falls within the standard curve) following the supplier's instructions.

Assay [2] shares this test system. Briefly: CHMC low cell density ionomycin activation: tryptase assay. Conditions: Low Density CHMC, ionomycin activation, tryptase readout, read-out: CHMC Ionomycin Tryptase.
Assay [3] shares this test system. Briefly: CHMC low cell density IgE activation: tryptase and LTC4 assays. The settings on record: Low Density CHMC, anti-IgE activation. The method, boiled down: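 Cultured human mast cells at low density (1000-1500 per well) rested 1 h at 37° C, then stimulated with anti-IgE for 30 min at 37° C. Supernatant tryptase measured with fluorogenic substrate (30 min, room temperature); LTC4 quantified by ELISA on diluted supernatant.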

The mark [4] stands for this setting: IL-13, read-out: CHMC high density IL-13.
Setting [5] is: LTC4, read-out: CHMC high density LTC4.
Setting [6] is: TNF-alpha, read-out: CHMC high density TNF-alpha.
Where [7] appears, read: hexosaminidase release, read-out: CHMC high density hexos.
Setting [8] is: histamine release, read-out: CHMC high density histamine.
Where [9] appears, read: tryptase release, read-out: CHMC high density tryptase.
Where [10] appears, read: Homo sapiens, Mast cell, tryptase readout, read-out: CHMC anti-IgE Tryptase.
Where [11] appears, read: Homo sapiens, Mast cell, LTC4 readout, read-out: CHMC anti-IgE LTC4.

Some results are limits rather than exact numbers.

With `OCc1cc2cc(Nc3ncc(F)c(Nc4cccc(O)c4)n3)ccc2[nH]1` [Compound R926700, 5-Fluoro-N4-(3-hydroxyphenyl)-N2-[2-(hydroxymethyl)-(1H)-indol-5-yl]-2,4-pyrimidinediamine], the IC50 in assay [1] (setting [4]) is 2050 nM; in assay [1] (setting [5]), below 1100 nM; in assay [1] (setting [6]), below 1100 nM; in assay [1] (setting [7]), below 1100 nM; in assay [1] (setting [8]) it was below 1100 nM; in assay [1] (setting [9]), below 1100 nM. Also, in assay [2] (Homo sapiens, Mast cell), the IC50 was above 10000 nM.
As to `Cc1cc(Nc2ncc(F)c(Nc3cc(C)c(O)c(Cl)c3)n2)cc(Cl)c1O` [Compound R940216, N2,N4-Bis-(3-chloro-4-hydroxy-5-methylphenyl)-5-fluoro-2,4-pyrimidinediamine], the IC50 in assay [1] (setting [4]) is 3010 nM; in assay [1] (setting [5]), below 1100 nM; in assay [1] (setting [6]) it was 3190 nM; in assay [1] (setting [7]), below 1100 nM; in assay [1] (setting [8]), 1180 nM; in assay [1] (setting [9]), below 1100 nM. For the same compound, the IC50 in assay [3] (setting [10]) was 268 nM; in assay [2] (Homo sapiens, Mast cell), 7300 nM.
`COC(=O)c1cc2cc(Nc3ncc(F)c(Nc4cccc(O)c4)n3)ccc2o1` [Compound R926614, 5-Fluoro-N4-(3-hydroxyphenyl)-N2-(2-methoxycarbonylbenzofuran-5-yl)-2,4-pyrimidinediamine]: the IC50 in assay [1] (setting [4]) was 6440 nM; in assay [1] (setting [6]) it was above 10000 nM; in assay [1] (setting [7]) it was above 10000 nM; in assay [1] (setting [9]), above 10000 nM; in assay [3] (setting [10]), 228 nM; in assay [2] (Homo sapiens, Mast cell), above 10000 nM.
With `COC(=O)c1cc2cc(Nc3ncc(F)c(Nc4ccc(OC(C)C)cc4)n3)ccc2o1` [Compound R926704, 5-Fluoro-N2-(2-methoxycarbonylbenzofuran-5-yl)-N4-(4-isopropoxyphenyl)-2,4-pyrimidinediamine], the IC50 in assay [1] (setting [5]) is above 10000 nM; in assay [1] (setting [6]), above 10000 nM; in assay [1] (setting [7]), above 2000 nM; in assay [1] (setting [8]) it was above 10000 nM; in assay [1] (setting [9]) it was above 10000 nM; in assay [3] (setting [10]), 564 nM. Also, the IC50 in assay [2] (Homo sapiens, Mast cell) was above 10000 nM.
`CNC(=O)c1cc2cc(Nc3ncc(F)c(Nc4ccc5c(c4)OCCO5)n3)ccc2o1` [Compound R926496, N4-(3,4-Ethylenedioxyphenyl)-5-fluoro-N2-[2-(N-methylamino)carbonylbenzofuran-5-yl]-2,4-pyrimidinediamine]: the IC50 in assay [1] (setting [5]) was found to be 414 nM; in assay [1] (setting [6]), 622 nM; in assay [1] (setting [7]), 429 nM; in assay [1] (setting [8]) it was 809 nM; in assay [1] (setting [9]), 533 nM; in assay [3] (setting [10]) it was 571 nM. Also, the IC50 in assay [2] (Homo sapiens, Mast cell) was above 10000 nM.
With `COC(=O)C1Cc2cc(Nc3ncc(F)c(Nc4ccc(OC(C)C)cc4)n3)ccc2O1` (centres unmarked) [Compound R926706, 5-Fluoro-N2-(2,3-dihydro-2-(methoxycarbonyl)benzofuran-5-yl)-N4-(4-isopropoxyphenyl)-2,4-pyrimidinediamine], the IC50 in assay [1] (setting [5]) was 1490 nM; in assay [1] (setting [6]), above 10000 nM; in assay [1] (setting [7]) it was above 2000 nM; in assay [1] (setting [8]), above 10000 nM; in assay [1] (setting [9]) it was above 10000 nM; in assay [3] (setting [11]), 78 nM. The IC50 was 70 nM in assay [3] (setting [10]) and 2410 nM in assay [2] (Homo sapiens, Mast cell).
As for `Nc1cc(Cl)cc(Nc2ncc(F)c(Nc3cc(N)cc(Cl)c3)n2)c1` [Compound R950141, N2,N4-Bis(3-amino-5-chlorophenyl)-5-fluoro-2,4-pyrimidinediamine], the IC50 amounted to 798 nM in assay [1] (setting [4]); 201 nM in assay [1] (setting [5]); 1060 nM in assay [1] (setting [6]); 567 nM in assay [1] (setting [7]); 627 nM in assay [1] (setting [8]); 618 nM in assay [1] (setting [9]). Further, the IC50 in assay [3] (setting [10]) is 310 nM; in assay [2] (Homo sapiens, Mast cell), above 10000 nM.
As for `CC(C)Oc1ccc(Nc2nc(Nc3ccc4oc(CO)cc4c3)ncc2F)cc1` [Compound R926705, 5-Fluoro-N2-[2-(hydroxymethyl)benzofuran-5-yl]-N4-[4-(isopropoxy)phenyl]-2,4-pyrimidinediamine], the IC50 in assay [1] (setting [5]) is 494 nM; in assay [1] (setting [6]), above 10000 nM; in assay [1] (setting [7]), 1010 nM; in assay [1] (setting [8]), 641 nM; in assay [1] (setting [9]), 1260 nM; in assay [3] (setting [11]), 533 nM. Moreover, the IC50 in assay [3] (setting [10]) is 263 nM; in assay [2] (Homo sapiens, Mast cell), above 10000 nM.
For `CNC(=O)c1cc2cc(Nc3ncc(F)c(Nc4ccc(C(C)(C)C)cc4)n3)ccc2o1` [Compound R926494, N4-(4-tert-Butylphenyl)-5-fluoro-N2-[2-(N-methylamino)carbonylbenzofuran-5-yl]-2,4-pyrimidinediamine], the IC50 in assay [1] (setting [5]) was 326 nM; in assay [1] (setting [6]), above 10000 nM; in assay [1] (setting [7]), 640 nM; in assay [1] (setting [8]) it was above 10000 nM; in assay [1] (setting [9]), above 2000 nM; in assay [3] (setting [11]), 78 nM. The IC50 in assay [3] (setting [10]) is 313 nM; in assay [2] (Homo sapiens, Mast cell), above 10000 nM.
As for `Oc1cccc(Nc2nc(NCCN3CCN(Cc4ccccc4)CC3)ncc2F)c1` [Compound R940261, N2-[2-(N-Benzylpiperazino)ethyl]-5-fluoro-N4-(3-hydroxyphenyl)-2,4-pyrimidinediamine], the IC50 is above 10000 nM in assay [3] (setting [10]) and above 10000 nM in assay [2] (Homo sapiens, Mast cell).
With `Oc1cccc(Nc2nc(N=Cc3ccoc3)ncc2F)c1` [Compound R950210, N2-(3-Furylmethylene)-5-fluoro-N4-(3-hydroxyphenyl)-2,4-pyrimidinediamine], the IC50 in assay [3] (setting [10]) is 10000 nM; in assay [2] (Homo sapiens, Mast cell), above 10000 nM.
In the case of `COC(=O)c1cc2cc(Nc3ncc(F)c(Nc4ccc5[nH]c(C(=O)OC)cc5c4)n3)ccc2[nH]1` [Compound R926593], the IC50 in assay [3] (LTC4 readout, read-out: CHMC anti-IgE LTC4) worked out at 495 nM; in assay [3] (tryptase readout, read-out: CHMC anti-IgE Tryptase) it was 680 nM; in assay [2], 8300 nM.
As for `CC(C)(C)OC(=O)C=Nc1cccc(Nc2ncc(F)c(Nc3cccc(N=CC(=O)OC(C)(C)C)c3)n2)c1` [Compound R950177, N2,N4-Bis(3-tert-butoxycarbonylmethyleneaminophenyl)-5-fluoro-2,4-pyrimidinediamine], the IC50 in assay [3] (setting [10]) was 2360 nM; in assay [2] (Homo sapiens, Mast cell), 8430 nM.
Turning to `COC(=O)C1Cc2cc(Nc3ncc(F)c(Nc4ccc(OC(F)(F)F)c(Cl)c4)n3)ccc2O1` (centres unmarked) [Compound R926953, N4-(3-Chloro-4-trifluoromethoxyphenyl)-5-fluoro-N2-[2,3-dihydro-2-(methoxycarbonyl)benzofuran-5-yl]-2,4-pyrimidinediamine], the IC50 in assay [3] (setting [10]) was 49 nM; in assay [2] (Homo sapiens, Mast cell) it was above 10000 nM.
On the same counts, the results for `Oc1cccc(Nc2ncc(F)c(NCc3csc4ccc(Cl)cc34)n2)c1` [Compound R926722, N4-[(5-Chloro-1-benzothiophen-3-yl)methyl]-5-fluoro-N2-(3-hydroxyphenyl)-2,4-pyrimidinediamine] are 5960 nM and above 10000 nM.
On the same counts, the results for `COC(=O)c1ccc(Nc2ncc(F)c(Nc3ccc(C(=O)OC)cc3)n2)cc1` [Compound R945034, N2,N4-Bis(4-methoxycarbonylphenyl)-5-fluoro-2,4-pyrimidinediamine] are 1850 nM and above 10000 nM.
In the same order, the values of `Nc1cccc(Nc2nc(Nc3ccc4c(c3)N=CCO4)ncc2F)c1` [Compound R950254, N4-(3-Aminophenyl)-N2-(1,4-benzoxazin-6-yl)-5-fluoro-2,4-pyrimidinediamine] are 496 nM and above 10000 nM.
For the compound `CNC(=O)C1Cc2cc(Nc3ncc(F)c(Nc4ccc(Cl)c(Cl)c4)n3)ccc2O1` (racemic) [Compound R927037, (±)-N4-(3,4-Dichlorophenyl)-N2-[2,3-dihydro-2-(N-methylamino)carbonylbenzofuran-5-yl]-5-fluoro-2,4-pyrimidinediamine], the IC50 in assay [3] (setting [10]) is 233 nM; in assay [2] (Homo sapiens, Mast cell) it was above 10000 nM.
On the same counts, the results for `CCCCOc1ccc(Nc2cc(Nc3ccc4c(c3)OCCO4)ncc2F)cc1` [Compound R920671, N4-(4-n-Butyloxyphenyl)-N2-(3,4-ethylenedioxyphenyl)-5-fluoro-2,4-pyridinediamine] are above 10000 nM and above 10000 nM.
On the same counts, the results for `Oc1ccc(Nc2ncc(F)c(Nc3ccc(O)c(F)c3)n2)cc1F` [Compound R926681, N2,N4-Bis(3-fluoro-4-hydroxyphenyl)-5-fluoro-2,4-pyrimidinediamine] are 775 nM and above 10000 nM.
In the same order, the values of `Oc1ccc(Nc2ncc(F)c(Nc3ccc(O)cc3)n2)cc1` [Compound R926405, N2,N4-Bis(4-hydroxyphenyl)-5-fluoro-2,4-pyrimidinediamine] are 3400 nM and above 10000 nM.
